Experimental data taken from PMC8926291 (Chemical Science, 2022).
Starred links: 1 amine or outer side, 2 acyl side, 3 side chain; linkers in the order of their positions; H or OH if unused. Positions of bridges follow the written chain, without caps; N, C: chain ends. Residues, ends and D or L forms follow the SMILES beside them. *: point of attachment. C18 diacid = O=C(O)CCCCCCCCCCCCCCCCC(=O)*; γGlu = O=C(O)[C@H](CCC(=O)[*:2])N[*:1]; AEEA = NCCOCCOCC(=O)O

Experiments:
[1] = pharmacokinetic study in rats, i.v. dosing; type: in vivo; details: male, Sprague-Dawley, rat, plasma, iv, 2 nmol/kg, mean
[2] = in vitro plasma stability in human plasma; details: 37 °C, over 5 h
[3] = biological target: T1, hGIP-R ECD (Homo sapiens, UniProt P48546); experiment: multi-concentration BLI binding of purified peptides to hGIP-R ECD
T1 sequence (P48546 22-138): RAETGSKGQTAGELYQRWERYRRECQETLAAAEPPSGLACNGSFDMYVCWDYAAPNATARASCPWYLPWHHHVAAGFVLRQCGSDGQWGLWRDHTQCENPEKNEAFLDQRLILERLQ

[4] = cited from earlier work
[5] = biological target: T1, hGIP-R ECD; experiment: single-concentration BLI binding of crude peptides to biotinylated hGIP-R ECD

Row | Compound | In vitro plasma stability (in words) [2] | binding to hGIP-R ECD (in words) [3] | also measured
1 | CC(=O)N[C@@H](C)C(=O)N[C@H]1CSSC[C@@H](C(=O)O)NC(=O)[C@H](Cc2ccccc2)NC(=O)[C@@H]2CCCN2C(=O)[C@H](Cc2c[nH]c3ccccc23)NC(=O)[C@H](CC(C)C)NC(=O)[C@H](CC(C)C)NC(=O)[C@H](CC(=O)O)NC(=O)[C@H](Cc2ccccc2)NC(=O)[C@H](Cc2c[nH]cn2)NC(=O)[C@H]([C@@H](C)O)NC(=O)[C@H](Cc2ccccc2)NC1=O [B_1275.5] (Ac-ACFTHFDLLWPFC-OH; disulfide 2-13) | no decrease in plasma stability |  | half-life ([1]; t½ (min)): 0.03 h
2 | CSCC[C@H](NC(=O)COCCOCCNC(=O)COCCOCCNC(=O)CC[C@H](NC(=O)CCCCCCCCCCCCCCCCC(=O)O)C(=O)O)C(=O)N[C@H]1CSSC[C@@H](C(N)=O)NC(=O)[C@H](Cc2ccccc2)NC(=O)[C@@H]2CCCN2C(=O)[C@H](Cc2c[nH]c3ccccc23)NC(=O)[C@H](CC(C)C)NC(=O)[C@H](CCSC)NC(=O)[C@H](Cc2c[nH]cn2)NC(=O)[C@H](Cc2ccccc2)NC(=O)[C@H](Cc2c[nH]cn2)NC(=O)[C@H]([C@@H](C)O)NC(=O)[C@H](Cc2ccccc2)NC1=O [B_1275.3] ({C18 diacid-γGlu-AEEA-AEEA}-MCFTHFHMLWPFC-NH2; disulfide 2-13) | no decrease in plasma stability |  | 
3 | CC(=O)N[C@@H](C)C(=O)N[C@H]1CSSC[C@@H](C(=O)NCC(=O)N[C@@H](CO)C(=O)NCC(=O)N[C@@H](CO)C(=O)N[C@@H](CC(=O)O)C(=O)N[C@@H](Cc2ccc(O)cc2)C(=O)N[C@@H](CCCCN)C(=O)N[C@@H](CC(=O)O)C(=O)N[C@@H](CC(=O)O)C(=O)N[C@@H](CC(=O)O)C(=O)N[C@@H](CC(=O)O)C(=O)N[C@@H](CCCCN)C(N)=O)NC(=O)[C@H](Cc2ccccc2)NC(=O)[C@@H]2CCCN2C(=O)[C@H](Cc2c[nH]c3ccccc23)NC(=O)[C@H](CC(C)C)NC(=O)[C@H](CC(C)C)NC(=O)[C@H](CC(=O)O)NC(=O)[C@H](Cc2ccccc2)NC(=O)[C@H](Cc2c[nH]cn2)NC(=O)[C@H]([C@@H](C)O)NC(=O)[C@H](Cc2ccccc2)NC1=O [B_1275.4] (Ac-ACFTHFDLLWPFCGSGSDYKDDDDK-NH2; disulfide 2-13) | no decrease in plasma stability |  | half-life ([1]; t½ (min)): 0.0583 h
4 | Ac-MSFIHWDMLWPFSGSGSDYKDDDDK-NH2 [B_5.2] |  | None of the linear variants | 
5 | CC(C)C[C@@H]1NC(=O)[C@H](CC(=O)O)NC(=O)[C@H](Cc2ccccc2)NC(=O)[C@H](Cc2c[nH]cn2)NC(=O)[C@H]([C@@H](C)O)NC(=O)[C@H](Cc2ccccc2)NC(=O)[C@@H](NC(=O)[C@H](C)NC(=O)COCCOCCNC(=O)COCCOCCNC(=O)CC[C@H](NC(=O)CCCCCCCCCCCCCCCCC(=O)O)C(=O)O)CSSC[C@@H](C(=O)O)NC(=O)[C@H](Cc2ccccc2)NC(=O)[C@@H]2CCCN2C(=O)[C@H](Cc2c[nH]c3ccccc23)NC(=O)[C@H](CC(C)C)NC1=O [B_1275.6] ({C18 diacid-γGlu-AEEA-AEEA}-ACFTHFDLLWPFC-OH; disulfide 2-13) | no decrease in plasma stability |  | half-life ([1]; t½ (h)): 4.2 h
6 | Ac-MSFRFFSLLWPFSGSGSDYKDDDDK-NH2 [B_68.2] |  | None of the linear variants | 
7 | CC(=O)N[C@@H](C)C(=O)N[C@H]1CSSC[C@@H](C(=O)NCC(=O)N[C@@H](CO)C(=O)NCC(=O)N[C@@H](CO)C(=O)N[C@@H](CC(=O)O)C(=O)N[C@@H](Cc2ccc(O)cc2)C(=O)N[C@@H](CCCCN)C(=O)N[C@@H](CC(=O)O)C(=O)N[C@@H](CC(=O)O)C(=O)N[C@@H](CC(=O)O)C(=O)N[C@@H](CC(=O)O)C(=O)N[C@@H](CCCCN)C(N)=O)NC(=O)[C@@H]2CCCN2C(=O)[C@@H]2CCCN2C(=O)[C@H](Cc2c[nH]c3ccccc23)NC(=O)[C@H](CC(C)C)NC(=O)[C@H](CC(C)C)NC(=O)[C@H](Cc2c[nH]cn2)NC(=O)[C@H](Cc2ccccc2)NC(=O)[C@H](Cc2c[nH]cn2)NC(=O)[C@H]([C@@H](C)O)NC(=O)[C@H](Cc2ccccc2)NC1=O [B_1275.10] (Ac-ACFTHFHLLWPPCGSGSDYKDDDDK-NH2; disulfide 2-13) |  | did not show any binding | 
8 | CSCC[C@H](NC(=O)COCCOCCNC(=O)COCCOCCNC(=O)CC[C@H](NC(=O)CCCCCCCCCCCCCCCCC(=O)O)C(=O)O)C(=O)N[C@H]1CSSC[C@@H](C(=O)NCC(=O)N[C@@H](CO)C(=O)NCC(=O)N[C@@H](CO)C(=O)N[C@@H](CC(=O)O)C(=O)N[C@@H](Cc2ccc(O)cc2)C(=O)N[C@@H](CCCCN)C(=O)N[C@@H](CC(=O)O)C(=O)N[C@@H](CC(=O)O)C(=O)N[C@@H](CC(=O)O)C(=O)N[C@@H](CC(=O)O)C(=O)N[C@@H](CCCCN)C(N)=O)NC(=O)[C@H](Cc2ccccc2)NC(=O)[C@@H]2CCCN2C(=O)[C@H](Cc2c[nH]c3ccccc23)NC(=O)[C@H](CC(C)C)NC(=O)[C@H](CCSC)NC(=O)[C@H](Cc2c[nH]cn2)NC(=O)[C@H](Cc2ccccc2)NC(=O)[C@H](Cc2c[nH]cn2)NC(=O)[C@H]([C@@H](C)O)NC(=O)[C@H](Cc2ccccc2)NC1=O [B_1275.1] ({C18 diacid-γGlu-AEEA-AEEA}-MCFTHFHMLWPFCGSGSDYKDDDDK-NH2; disulfide 2-13) |  |  | half-life ([1]; t½ (h)): 10.7 h
9 | semaglutide |  |  | t1/2 in rats [4]: 7 h
10 | Ac-MSFTHFHMLWPFSGSGSDYKDDDDK-NH2 [B_1275.2] |  | None of the linear variants | 
11 | Ac-MSFQYFHILWPFSGSGSDYKDDDDK-NH2 [B_3.2] |  | None of the linear variants | 
12 | CSCC[C@H](NC(C)=O)C(=O)N[C@H]1CSSC[C@@H](C(=O)NCC(=O)N[C@@H](CO)C(=O)NCC(=O)N[C@@H](CO)C(=O)N[C@@H](CC(=O)O)C(=O)N[C@@H](Cc2ccc(O)cc2)C(=O)N[C@@H](CCCCN)C(=O)N[C@@H](CC(=O)O)C(=O)N[C@@H](CC(=O)O)C(=O)N[C@@H](CC(=O)O)C(=O)N[C@@H](CC(=O)O)C(=O)N[C@@H](CCCCN)C(N)=O)NC(=O)[C@H](Cc2ccccc2)NC(=O)[C@@H]2CCCN2C(=O)[C@H](Cc2c[nH]c3ccccc23)NC(=O)[C@H](CC(C)C)NC(=O)[C@H](CC(C)C)NC(=O)[C@H](CO)NC(=O)[C@H](Cc2ccccc2)NC(=O)[C@H](Cc2ccccc2)NC(=O)[C@H](CCCNC(=N)N)NC(=O)[C@H](Cc2ccccc2)NC1=O [B_68] (Ac-MCFRFFSLLWPFCGSGSDYKDDDDK-NH2; disulfide 2-13) |  |  | binding to hGIP-R ECD (in words) [5]: did not reveal any binding
